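All cell lines were grown in 96-well plates and treated with compound for 48 hours. TGI: total growth inhibition.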

Among the test systems are SK-OV-3 ovarian; SF-295 CNS; SK-MEL-28 melanoma; OVCAR-3 ovarian; DU-145 prostate; HOP-62 NSCLC; HS 578T breast; U251 CNS; MDA-MB-231 breast; HT29 colon.
Common to all, as to experiment: growth of human tumour cells (NCI), 48 h

`Cc1ccc(S(=O)CC(CF)OCn2cc(C)c(=O)[nH]c2=O)cc1` (centres undefined): the TGI with SK-OV-3 ovarian, in the assay on SF-295 CNS, in the assay with SK-MEL-28 melanoma, with OVCAR-3 ovarian, with DU-145 prostate and with HOP-62 NSCLC was above 100 µM throughout. In addition, the TGI in the assay on HS 578T breast, in the assay on U251 CNS and with MDA-MB-231 breast was above 100 µM each time.
With `COc1ccc(-c2oc3cc(O)cc(O)c3c(=O)c2OC)cc1`, the TGI in the assay on HT29 colon is 68.3 µM; in the assay with SK-OV-3 ovarian, above 100 µM; with SF-295 CNS, above 100 µM; in the assay on SK-MEL-28 melanoma it was above 100 µM; in the assay on OVCAR-3 ovarian it was 60.9 µM; in the assay on DU-145 prostate, above 100 µM. In addition, the TGI was above 100 µM with HOP-62 NSCLC, 52.1 µM in the assay on U251 CNS and above 100 µM in the assay on MDA-MB-231 breast.
Take `CCOC(=O)Nn1c(CC#N)nnc1Cc1ccccc1`: the TGI in the assay on HT29 colon, in the assay on SF-295 CNS, with SK-MEL-28 melanoma, with OVCAR-3 ovarian, with DU-145 prostate and in the assay with HOP-62 NSCLC was above 100 µM in each case. Also, the TGI with HS 578T breast, with U251 CNS and in the assay on MDA-MB-231 breast was above 100 µM throughout.
With `Cc1cc(=O)[nH]c(NN2C(Cl)C(=O)C2c2ccc([N+](=O)[O-])cc2)n1` (centres undefined), the TGI in the assay on HT29 colon stood at 43.8 µM; in the assay on SK-MEL-28 melanoma it was 27.1 µM; in the assay on OVCAR-3 ovarian it was 20.6 µM; with HOP-62 NSCLC, 23 µM; in the assay with U251 CNS, 36.7 µM.
`CC(C)(C)n1c(=O)[nH]c(=O)n1C(C)(C)C`: the TGI in the assay with HT29 colon, in the assay with SK-OV-3 ovarian, in the assay on SF-295 CNS, with SK-MEL-28 melanoma, with OVCAR-3 ovarian and in the assay with HOP-62 NSCLC was above 100 µM in each case. For the same compound, the TGI with HS 578T breast, with U251 CNS and in the assay with MDA-MB-231 breast was above 100 µM throughout.
On to `O=C(O)c1ccccc1N=Cc1ccc(N(CCCl)CCCl)cc1`, for which the TGI in the assay on HT29 colon, with SK-OV-3 ovarian, in the assay on SF-295 CNS, in the assay with SK-MEL-28 melanoma, in the assay on OVCAR-3 ovarian and in the assay with U251 CNS was above 100 µM throughout.
Turning to `Cc1ccc(S(=O)(=O)Nn2c(O)c(C#N)c(-c3ccc(Cl)cc3)c(C#N)c2=O)cc1`, the TGI in the assay with HT29 colon, in the assay with SK-OV-3 ovarian, in the assay on SF-295 CNS, in the assay with SK-MEL-28 melanoma, in the assay on HOP-62 NSCLC and with HS 578T breast was above 100 µM throughout. Moreover, the TGI in the assay on U251 CNS and in the assay on MDA-MB-231 breast was above 100 µM throughout.
`CC(C)(C)[Si](C)(C)OCc1cccc(OCCOc2cccc(CO[Si](C)(C)C(C)(C)C)c2[N+](=O)[O-])c1[N+](=O)[O-]`: the TGI with HT29 colon, in the assay with SK-OV-3 ovarian, in the assay on SF-295 CNS, in the assay on SK-MEL-28 melanoma, with OVCAR-3 ovarian and in the assay on DU-145 prostate was above 100 µM in each case. The TGI in the assay with HOP-62 NSCLC, in the assay on HS 578T breast and in the assay on U251 CNS was above 100 µM throughout.
With `Cc1cc(OC(=O)NCn2cc(-c3ccccc3)nn2)ccc1Cl`, the TGI in the assay with HT29 colon, in the assay on SF-295 CNS, in the assay with SK-MEL-28 melanoma, with DU-145 prostate, with HOP-62 NSCLC and in the assay with U251 CNS was above 100 µM throughout. The same compound displayed a TGI in the assay on MDA-MB-231 breast above 100 µM.
For the compound `CCCSc1ccc2[nH]c(N3C(=O)/C(=C/c4ccccc4)N=C3c3ccccc3)cc2c1`, the TGI in the assay on HT29 colon, with SK-MEL-28 melanoma, in the assay with DU-145 prostate and in the assay with HS 578T breast was above 50 µM throughout.
Regarding `CCOC(=O)c1cc(C)nc2c1c(=O)n(-c1ccccc1)c(=O)n2CCCCN1CCN(c2ccccc2)CC1`, the TGI with HT29 colon, in the assay with SK-OV-3 ovarian, in the assay on SF-295 CNS, in the assay with SK-MEL-28 melanoma, in the assay with DU-145 prostate and in the assay with HOP-62 NSCLC was above 100 µM in each case. For the same compound, the TGI with HS 578T breast, in the assay on U251 CNS and in the assay on MDA-MB-231 breast was above 100 µM each time.
As for `C=C(C)[C@H]1C2=CC(C)=C(O2)[C@@H](O[C@@H]2c3oc(cc3C)[C@H](C(=C)C)[C@H]3C=C(CC[C@H]2C(=C)C)C(=O)O3)[C@H](C(=C)C)CCC2=C[C@H]1OC2=O`, the TGI with SK-OV-3 ovarian, in the assay on SF-295 CNS, in the assay with SK-MEL-28 melanoma, in the assay with OVCAR-3 ovarian, with DU-145 prostate and with HOP-62 NSCLC was above 100 µM throughout. Moreover, the TGI in the assay with HS 578T breast, in the assay on U251 CNS and with MDA-MB-231 breast was above 100 µM each time.
On to `CC1(C)CC2(CC(C)(C)N1O)NC(=O)OC2=O`, for which the TGI in the assay with HT29 colon, with SK-OV-3 ovarian, with SF-295 CNS, in the assay on SK-MEL-28 melanoma, with OVCAR-3 ovarian and with HOP-62 NSCLC was above 100 µM throughout. The TGI in the assay with U251 CNS was above 100 µM.
`COc1cccc(N[C@@H]2c3cc4c(cc3C(c3cc(OC)c(O)c(OC)c3)[C@H]3C(=O)OCC32)OCO4)c1` (some centres undefined): the TGI in the assay with HT29 colon is 10.5 µM; with SK-OV-3 ovarian, 17.9 µM; in the assay on SF-295 CNS it was 2.5 µM; in the assay with SK-MEL-28 melanoma, above 61.2 µM; in the assay on OVCAR-3 ovarian, 68.6 µM; in the assay with HOP-62 NSCLC, 0.671 µM. The same compound returned a TGI with U251 CNS of 13 µM.
Take `C=CCOn1c(C=C)nc2ccc(C)cc21`: the TGI in the assay with HT29 colon was 30.2 µM; in the assay with SK-OV-3 ovarian, above 100 µM; in the assay with SF-295 CNS it was 82.6 µM; with SK-MEL-28 melanoma, 38 µM; in the assay on OVCAR-3 ovarian, 40.9 µM; with HOP-62 NSCLC, 78.3 µM. For the same compound, the TGI with HS 578T breast is above 100 µM; in the assay on U251 CNS it was 26 µM; in the assay with MDA-MB-231 breast, 48.1 µM.
For the compound `O=c1oc(C(C(F)(F)F)C(F)(F)F)nc2ccccc12`, the TGI with HT29 colon, in the assay with SK-OV-3 ovarian, in the assay with SF-295 CNS, in the assay with SK-MEL-28 melanoma, in the assay with OVCAR-3 ovarian and in the assay on HOP-62 NSCLC was above 100 µM each time. The TGI in the assay on U251 CNS and in the assay on MDA-MB-231 breast was above 100 µM each time.

The record behind these values is PubChem BioAssay (NCI).
